{"source": "paper PMC8569553", "about": "“An improved assay to measure the phospholipid transfer activity of microsomal triglyceride transport protein” (Journal of Lipid Research, 2021)", "key": {"[1]": {"molecular_target": "T1, human microsomal triglyceride transfer protein (hMTP) N649S mutant (Homo sapiens, UniProt P55157, N649S)", "T1 construct": "gene MTTP; expressed in Cos-7 cells, lysate", "T1 sequence (P55157 19-894 N649S)": "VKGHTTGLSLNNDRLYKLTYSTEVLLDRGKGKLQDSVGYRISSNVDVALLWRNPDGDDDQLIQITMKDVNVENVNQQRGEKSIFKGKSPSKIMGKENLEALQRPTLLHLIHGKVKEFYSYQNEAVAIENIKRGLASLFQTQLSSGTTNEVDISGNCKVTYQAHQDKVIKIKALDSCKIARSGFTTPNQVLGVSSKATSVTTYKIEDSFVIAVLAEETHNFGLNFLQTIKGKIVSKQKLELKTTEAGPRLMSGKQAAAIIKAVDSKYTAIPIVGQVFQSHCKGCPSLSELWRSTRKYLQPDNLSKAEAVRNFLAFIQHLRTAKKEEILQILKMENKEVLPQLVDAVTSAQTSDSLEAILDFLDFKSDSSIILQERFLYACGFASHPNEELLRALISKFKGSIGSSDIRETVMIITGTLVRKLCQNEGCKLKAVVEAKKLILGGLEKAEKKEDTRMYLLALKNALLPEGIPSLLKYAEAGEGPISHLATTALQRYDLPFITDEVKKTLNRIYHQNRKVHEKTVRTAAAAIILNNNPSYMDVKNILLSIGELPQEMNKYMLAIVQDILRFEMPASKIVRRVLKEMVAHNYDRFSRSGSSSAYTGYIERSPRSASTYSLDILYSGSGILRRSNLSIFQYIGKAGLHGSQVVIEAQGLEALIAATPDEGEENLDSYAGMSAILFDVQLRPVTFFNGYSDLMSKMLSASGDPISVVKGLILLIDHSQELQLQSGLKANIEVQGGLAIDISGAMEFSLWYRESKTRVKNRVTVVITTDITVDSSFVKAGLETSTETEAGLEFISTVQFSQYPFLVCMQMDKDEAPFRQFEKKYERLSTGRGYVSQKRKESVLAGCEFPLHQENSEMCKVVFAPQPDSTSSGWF", "assay": "NBD-lipid TAG and PL transfer assay in Cos-7 lysate, […] lomitapide", "assay_type": "cell-based"}, "[2]": {"molecular_target": "T2, mouse microsomal triglyceride transfer protein (mMTP) (Mus musculus, UniProt O08601)", "T2 construct": "gene Mttp; endogenous, liver homogenate", "T2 sequence (O08601 22-894)": "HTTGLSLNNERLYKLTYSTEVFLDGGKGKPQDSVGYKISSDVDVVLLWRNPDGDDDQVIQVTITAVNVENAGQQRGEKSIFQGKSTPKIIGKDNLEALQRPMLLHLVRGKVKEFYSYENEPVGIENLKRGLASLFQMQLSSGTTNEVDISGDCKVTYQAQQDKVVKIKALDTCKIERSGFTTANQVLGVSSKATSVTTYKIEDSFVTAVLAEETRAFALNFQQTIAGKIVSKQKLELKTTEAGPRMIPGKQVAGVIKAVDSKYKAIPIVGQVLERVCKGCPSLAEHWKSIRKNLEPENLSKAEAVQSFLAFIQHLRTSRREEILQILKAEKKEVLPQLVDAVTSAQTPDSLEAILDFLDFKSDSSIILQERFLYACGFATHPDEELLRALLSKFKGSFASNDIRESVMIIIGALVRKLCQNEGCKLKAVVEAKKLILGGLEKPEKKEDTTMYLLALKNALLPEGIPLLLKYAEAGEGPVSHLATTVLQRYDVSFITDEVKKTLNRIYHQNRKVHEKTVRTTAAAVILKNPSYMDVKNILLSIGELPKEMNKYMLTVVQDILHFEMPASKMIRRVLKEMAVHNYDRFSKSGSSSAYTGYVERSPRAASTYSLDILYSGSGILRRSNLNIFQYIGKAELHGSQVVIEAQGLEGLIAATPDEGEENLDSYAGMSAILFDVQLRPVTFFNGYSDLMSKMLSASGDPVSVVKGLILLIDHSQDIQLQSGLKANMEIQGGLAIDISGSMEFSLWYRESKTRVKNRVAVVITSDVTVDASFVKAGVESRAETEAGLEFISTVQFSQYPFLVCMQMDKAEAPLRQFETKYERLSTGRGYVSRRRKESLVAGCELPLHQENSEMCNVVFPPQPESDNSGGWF", "T2 sequence (P09103 20-509 partner)": "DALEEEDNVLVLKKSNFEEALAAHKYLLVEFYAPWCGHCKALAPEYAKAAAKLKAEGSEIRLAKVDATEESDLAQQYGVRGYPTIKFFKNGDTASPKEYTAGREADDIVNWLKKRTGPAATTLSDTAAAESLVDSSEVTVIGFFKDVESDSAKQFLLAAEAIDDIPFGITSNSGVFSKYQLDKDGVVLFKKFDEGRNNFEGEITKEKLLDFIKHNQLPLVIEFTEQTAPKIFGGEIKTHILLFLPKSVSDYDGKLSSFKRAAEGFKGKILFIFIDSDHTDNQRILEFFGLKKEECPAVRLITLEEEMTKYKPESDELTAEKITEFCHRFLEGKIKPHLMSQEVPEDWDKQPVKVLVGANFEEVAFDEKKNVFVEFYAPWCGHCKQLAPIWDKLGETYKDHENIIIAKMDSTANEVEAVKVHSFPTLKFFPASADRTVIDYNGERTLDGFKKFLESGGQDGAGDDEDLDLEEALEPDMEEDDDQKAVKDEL", "assay": "NBD-lipid TAG and PL transfer assay in liver homogenate with Mttp knockout control, […] lomitapide", "assay_type": "cell-based"}, "Drosophila MTP (dMTP)": {"molecular_target": "T3, Drosophila MTP (dMTP) (Drosophila melanogaster, UniProt Q9VIH3)", "T3 construct": "expressed in Cos-7 cells, lysate", "T3 sequence (Q9VIH3 28-886)": "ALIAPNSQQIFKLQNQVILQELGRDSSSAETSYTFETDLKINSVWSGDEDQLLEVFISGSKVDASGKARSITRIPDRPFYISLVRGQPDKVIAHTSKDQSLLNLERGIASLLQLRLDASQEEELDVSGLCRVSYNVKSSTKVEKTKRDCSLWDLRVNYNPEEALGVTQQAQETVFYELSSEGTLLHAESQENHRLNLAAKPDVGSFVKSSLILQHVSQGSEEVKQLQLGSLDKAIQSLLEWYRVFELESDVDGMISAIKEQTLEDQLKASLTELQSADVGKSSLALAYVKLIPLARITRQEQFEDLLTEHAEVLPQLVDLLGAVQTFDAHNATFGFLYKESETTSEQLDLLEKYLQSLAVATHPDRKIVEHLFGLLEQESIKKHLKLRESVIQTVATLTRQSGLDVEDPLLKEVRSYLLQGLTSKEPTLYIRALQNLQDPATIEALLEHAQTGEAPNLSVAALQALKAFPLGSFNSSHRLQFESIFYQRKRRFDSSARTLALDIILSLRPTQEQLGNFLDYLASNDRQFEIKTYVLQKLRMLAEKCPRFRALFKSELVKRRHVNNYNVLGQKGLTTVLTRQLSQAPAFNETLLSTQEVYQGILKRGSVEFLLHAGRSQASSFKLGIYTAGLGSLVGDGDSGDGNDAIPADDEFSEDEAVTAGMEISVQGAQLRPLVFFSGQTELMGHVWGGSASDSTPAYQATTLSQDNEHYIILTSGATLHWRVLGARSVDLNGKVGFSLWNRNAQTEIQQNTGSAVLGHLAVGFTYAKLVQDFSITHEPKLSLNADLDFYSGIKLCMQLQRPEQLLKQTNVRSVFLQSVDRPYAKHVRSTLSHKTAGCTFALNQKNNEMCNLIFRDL", "assay": "NBD-PE PL transfer assay in Cos-7 lysate, […] lomitapide (partial inhibition)", "assay_type": "cell-based"}, "[3]": {"molecular_target": "T4, human microsomal triglyceride transfer protein (hMTP) (Homo sapiens, UniProt P55157)", "T4 construct": "gene MTTP; hMTP-FLAG, purified from Cos-7 cells; with protein disulphide isomerase (PDI, β subunit)", "T4 sequence (P55157 19-894)": "T1 sequence (P55157 19-894 N649S) with S631N", "assay": "fluorescent NBD-lipid vesicle transfer assay (PL and TAG) with purified MTP", "assay_type": "biochemical"}}, "note": "Substitutions are numbered along the chain they refer to. pIC50: −log10 of the molar value.", "data": [{"smiles": "O=C(NC1CCN(CCCCC2(C(=O)NCC(F)(F)F)c3ccccc3-c3ccccc32)CC1)c1ccccc1-c1ccc(C(F)(F)F)cc1", "note": "[lomitapide]", "values": [{"measurement": "NBD-lipid TAG and PL transfer assay in Cos-7 lysate, 1 μM lomitapide", "setting": "[1]", "value": "resulted in significantly lower TAG transfer activity, which was completely inhibited by lomitapide"}, {"measurement": "NBD-lipid TAG and PL transfer assay in liver homogenate with Mttp knockout contr", "setting": "[2]", "value": "substantial TAG transfer activity in Mttp^fl/fl liver tissue, and this activity was inhibited by lomitapide"}, {"measurement": "NBD-PE PL transfer assay in Cos-7 lysate, 1 μM lomitapide (partial inhibition)", "setting": "Drosophila MTP (dMTP)", "value": "This activity was partially inhibited by lomitapide."}, {"measurement": "pIC50", "setting": "[3]", "value": 8.00}]}]}
